Experimental data published in ChEMBL document CHEMBL3352273, “Synthesis and biological evaluation of novel thieno[2,3-d]pyrimidine-based FLT3 inhibitors as anti-leukemic agents” (Eur J Med Chem, 2014).

Experiments:
K562 = assay: cells; details: Homo sapiens, K562, 48 h
Description: Growth inhibition of human K562 cells after 48 hrs by XTT assay

cells [1] = details: Homo sapiens, HL-60, 48 h
Description: Growth inhibition of human HL60 cells after 48 hrs by XTT assay

cells [2] = details: Homo sapiens, MV4-11, 48 h
Description: Growth inhibition of human MV411 cells after 48 hrs by XTT assay

cells [3] = details: Homo sapiens, THP-1, 48 h
Description: Growth inhibition of human THP1 cells after 48 hrs by XTT assay

[4] = Retention time of the compound by HPLC method; format: physicochemical
[5] = target: T1, Receptor-type tyrosine-protein kinase FLT3 (Homo sapiens, UniProt P36888)
T1 sequence (P36888 whole entry): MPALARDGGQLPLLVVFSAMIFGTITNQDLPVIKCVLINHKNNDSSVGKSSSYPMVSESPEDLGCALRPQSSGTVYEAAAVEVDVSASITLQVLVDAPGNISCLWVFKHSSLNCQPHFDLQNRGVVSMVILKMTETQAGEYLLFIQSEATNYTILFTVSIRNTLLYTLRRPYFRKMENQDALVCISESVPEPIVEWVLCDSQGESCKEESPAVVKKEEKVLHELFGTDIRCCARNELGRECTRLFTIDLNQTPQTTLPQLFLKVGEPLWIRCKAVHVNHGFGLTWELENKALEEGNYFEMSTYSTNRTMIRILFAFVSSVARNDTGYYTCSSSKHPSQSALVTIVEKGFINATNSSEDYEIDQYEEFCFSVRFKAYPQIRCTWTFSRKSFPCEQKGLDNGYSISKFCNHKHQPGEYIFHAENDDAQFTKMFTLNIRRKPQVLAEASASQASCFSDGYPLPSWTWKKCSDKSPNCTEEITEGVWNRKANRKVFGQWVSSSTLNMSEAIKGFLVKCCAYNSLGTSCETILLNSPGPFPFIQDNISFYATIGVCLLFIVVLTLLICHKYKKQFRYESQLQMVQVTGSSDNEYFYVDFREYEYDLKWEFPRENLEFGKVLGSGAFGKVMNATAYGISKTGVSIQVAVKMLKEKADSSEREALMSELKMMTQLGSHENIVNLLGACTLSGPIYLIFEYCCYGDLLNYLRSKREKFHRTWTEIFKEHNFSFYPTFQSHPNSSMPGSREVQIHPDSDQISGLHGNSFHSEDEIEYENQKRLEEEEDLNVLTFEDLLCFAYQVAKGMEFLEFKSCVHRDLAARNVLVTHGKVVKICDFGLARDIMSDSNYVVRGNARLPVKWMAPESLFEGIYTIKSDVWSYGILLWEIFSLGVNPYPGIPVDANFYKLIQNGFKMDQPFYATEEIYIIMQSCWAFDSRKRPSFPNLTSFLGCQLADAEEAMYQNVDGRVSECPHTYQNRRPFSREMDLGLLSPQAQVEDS
Description: Inhibition of human FLT3 using 10 uM ATP

## CC1=CC(=O)N(Nc2nc(-c3cccs3)nc3sc(CO)c(C)c23)C1=O
K562
  GI50: 3840 nM
Cells [1]
  GI50: 712 nM
Cells [2]
  GI50: 92 nM
Cells [3]
  GI50: 2600 nM
[4]
  Retention_time: 10.19 min

## COc1ccc(-c2nc(NN3C(=O)C=C(C)C3=O)c3c(-c4ccccc4)csc3n2)cc1
K562
  GI50: 703 nM
Cells [1]
  GI50: 1310 nM
Cells [2]
  GI50: 407 nM
[5]
  IC50: Not Active
Cells [3]
  GI50: 2200 nM
[4]
  Retention_time: 9.76 min

## COC(=O)c1sc2nc(-c3cccs3)nc(NN3C(=O)C=C(C)C3=O)c2c1C
K562
  GI50: 30 nM
Cells [1]
  GI50: 136 nM
Cells [2]
  GI50: 86 nM
Cells [3]
  GI50: 172 nM
[4]
  Retention_time: 6.04 min

## CC1=CC(=O)N(Nc2nc(-c3cccs3)nc3sc(-c4ccc([N+](=O)[O-])cc4)c(C)c23)C1=O
K562
  GI50: 1880 nM
Cells [1]
  GI50: 418 nM
Cells [2]
  GI50: 112 nM
Cells [3]
  GI50: 846 nM
[4]
  Retention_time: 9.44 min

## COCc1sc2nc(-c3cccs3)nc(NN3C(=O)C=C(C)C3=O)c2c1C
K562
  GI50: 1260 nM
Cells [1]
  GI50: 266 nM
Cells [2]
  GI50: 115 nM
Cells [3]
  GI50: 1780 nM
[4]
  Retention_time: 10.19 min

## COc1cc2c(N3CCN(C(=O)Nc4ccc(OC(C)C)cc4)CC3)ncnc2cc1OCCCN1CCCCC1 [TANDUTINIB]
K562
  GI50: > 10000 nM
Cells [1]
  GI50: > 10000 nM
Cells [2]
  GI50: 8760 nM
Cells [3]
  GI50: > 10000 nM

## CC1=CC(=O)N(Nc2nc(-c3cccs3)nc3sc(-c4ccc(O)cc4)c(C)c23)C1=O
K562
  GI50: 145 nM
Cells [1]
  GI50: 221 nM
Cells [2]
  GI50: 131 nM
Cells [3]
  GI50: 600 nM
[4]
  Retention_time: 4.93 min

## CC1=CC(=O)N(Nc2nc(-c3cccs3)nc3sc(C(N)=O)c(C)c23)C1=O
K562
  GI50: 2780 nM
Cells [1]
  GI50: 7800 nM
Cells [2]
  GI50: 193 nM
Cells [3]
  GI50: 2690 nM
[4]
  Retention_time: 5.72 min

## Cl.c1csc(-c2nc(N3CCNCC3)c3c(-c4cccs4)csc3n2)c1
K562
  GI50: > 10000 nM
Cells [1]
  GI50: > 10000 nM
Cells [2]
  GI50: > 10000 nM
Cells [3]
  GI50: > 10000 nM
[4]
  Retention_time: 4.39 min

## COc1sc2nc(-c3cccs3)nc(NN3C(=O)C=C(C)C3=O)c2c1C
K562
  GI50: 1460 nM
Cells [1]
  GI50: 240 nM
Cells [2]
  GI50: 100 nM
Cells [3]
  GI50: 906 nM
[4]
  Retention_time: 5.61 min

## COc1ccc(-c2sc3nc(-c4cccs4)nc(NN4C(=O)C=C(C)C4=O)c3c2C)cc1
K562
  GI50: 154 nM
Cells [1]
  GI50: 624 nM
Cells [2]
  GI50: 135 nM
Cells [3]
  GI50: 902 nM
[4]
  Retention_time: 10.06 min

## CC1=CC(=O)N(Nc2nc(-c3cccs3)nc3sc(-c4cccc(O)c4)c(C)c23)C1=O
K562
  GI50: 3 nM
Cells [1]
  GI50: 383 nM
Cells [2]
  GI50: 123 nM
Cells [3]
  GI50: 107 nM

## CC1=CC(=O)N(Nc2nc(-c3ccccc3)nc3scc(-c4cccs4)c23)C1=O
K562
  GI50: 6300 nM
Cells [1]
  GI50: 862 nM
Cells [2]
  GI50: 836 nM
[5]; read-out: IC50
  IC50: 1600 nM
Cells [3]
  GI50: 3730 nM
[4]
  Retention_time: 6.15 min

## CC1=CC(=O)N(Nc2nc(-c3cccs3)nc3scc(-c4cccs4)c23)C1=O
K562
  GI50: 5550 nM
Cells [1]
  GI50: 746 nM
Cells [2]
  GI50: 320 nM
[5]; read-out: IC50
  IC50: 69 nM
Cells [3]
  GI50: 2670 nM
[4]
  Retention_time: 8.11 min

## CC1=CC(=O)N(Nc2nc(-c3cccs3)nc3scc(-c4ccccc4)c23)C1=O
K562
  GI50: 74 nM
Cells [1]
  GI50: 758 nM
Cells [2]
  GI50: 233 nM
Cells [3]
  GI50: 155 nM
[4]
  Retention_time: 8.39 min

## CC1=CC(=O)N(Nc2nc(Cc3ccccc3)nc3scc(-c4cccs4)c23)C1=O
K562
  GI50: 3520 nM
Cells [1]
  GI50: 1520 nM
Cells [2]
  GI50: 3830 nM
[5]
  IC50: Not Active
Cells [3]
  GI50: 6660 nM
[4]
  Retention_time: 7.09 min

## COC(=O)Cc1sc2nc(-c3cccs3)nc(NN3C(=O)C=C(C)C3=O)c2c1C
K562
  GI50: 483 nM
Cells [1]
  GI50: 656 nM
Cells [2]
  GI50: 91 nM
Cells [3]
  GI50: 2900 nM

## CC1=CC(=O)N(Nc2nc(-c3ccc(C)s3)nc3scc(-c4cccs4)c23)C1=O
K562
  GI50: 1920 nM
Cells [1]
  GI50: 403 nM
Cells [2]
  GI50: 775 nM
Cells [3]
  GI50: 2800 nM
[4]
  Retention_time: 6.17 min

## CC1=CC(=O)N(Nc2nc(Cc3cccs3)nc3scc(-c4cccs4)c23)C1=O
K562
  GI50: > 10000 nM
Cells [1]
  GI50: 725 nM
Cells [2]
  GI50: 2010 nM
[5]
  IC50: Not Active
Cells [3]
  GI50: 6260 nM

## CC1=CC(=O)N(Nc2nc(-c3ccc(N(C)C)cc3)nc3scc(-c4ccccc4)c23)C1=O
K562
  GI50: 1740 nM
Cells [1]
  GI50: 2190 nM
Cells [2]
  GI50: 755 nM
[5]
  IC50: Not Active
Cells [3]
  GI50: 1630 nM
[4]
  Retention_time: 10.86 min

## CC1=CC(=O)N(Nc2nc(-c3ccc(N)cc3)nc3scc(-c4ccccc4)c23)C1=O
K562
  GI50: 8160 nM
Cells [1]
  GI50: 3710 nM
Cells [2]
  GI50: 2100 nM
Cells [3]
  GI50: 4110 nM
[4]
  Retention_time: 5.16 min

## CC1=CC(=O)N(Nc2nc(-c3cccs3)nc3sc(Cc4ccc(O)cc4)c(C)c23)C1=O
K562
  GI50: 880 nM
Cells [1]
  GI50: 213 nM
Cells [2]
  GI50: 103 nM
Cells [3]
  GI50: 948 nM

## NNc1nc(-c2cccs2)nc2scc(-c3cccs3)c12
K562
  GI50: > 10000 nM
Cells [1]
  GI50: > 10000 nM
Cells [2]
  GI50: > 10000 nM
Cells [3]
  GI50: > 10000 nM
